# Assay results reported in patent publication US9181309B1, “Peptide regulation of maize defense responses” (The United States of America, as represented by the …, priority 2011, dated 2015).
# Tests used:
# [1] = system: herbivore defense genes in maize leaves; experiment: Real time qPCR / qRT-PCR of defense and phytohormone biosynthesis genes in treated leaves
# [2] = system: jasmonic acid and ethylene production in maize leaves; experiment: Phytohormone (JA, ET) production in treated leaves; assay type: in vivo, Zea mays
# Description: A further embodiment is ZmPEP3 regulated production of defense-related metabolites. The elicitor-induced phytohormones JA and ethylene (ET) function as signals integral to initiation of protective responses against pathogens and herbivores (Howe and Jander, Annu Rev Plant Biol. 59:41, 2008).
# S. exigua = experiment: Larval growth on peptide-pretreated leaves; assay type: in vivo, Spodoptera exigua; details: compared to untreated or water-treated leaves
# Procedure: To assess the role of ZmPep3-induced direct defenses, S. exigua growth on peptide-pretreated leaves was evaluated. […] This effect was expected given the potency of ZmPep3-induced proteins and benzoxazinoids against herbivores.
# [3] = system: defense metabolites in maize leaves; experiment: Accumulation of defense metabolites within treated leaves (internal pools); assay type: in vivo, Zea mays
# Description: Induced terpene production is vital to anti-herbivore defenses in many plant species (Unsicker et al., Curr Opin Plant Biol. 12:479, 2009; Tholl, Curr Opin Plant Biol. 9:297, 2006; Keeling and Bohlmann, New Phytol 170:657, 2006). […] Expression of genes encoding the relevant biosynthetic enzymes, Anthranilic Acid Methyl Transferase 1 (AAMT1) and Indole-Glycerol Phosphate Lyase (IGL) were induced by both peptide and the insect elicitor ([…]., Plant Physiol 153:1795, 2010; Frey et al., Proc Natl Acad Sci USA. 97:14801, 2000). In addition to proteinaceous defenses, maize benzoxazinoids contribute to direct defenses against both herbivores and pathogens ([…] Agric Food Chem 57:1677, 2009). […] Oikawa et al., Phytochemistry. 56:669, 2001; Huffaker et al., Plant Physiol. 155:1325, 2011). […] It is hypothesized that simultaneous activation of both IGL and BX1 by ZmPep3 results in increased flux through the benzoxazinoid pathway to produce HDMBOA-Glc.
# Cotesia marginiventris = experiment: Olfactometer assay of parasitoid wasp attraction to pretreated leaves; assay type: in vivo
# Description: The generalist parasitoid Cotesia marginiventris attacks many Lepidopteran species including S. exigua and is attracted to herbivory-induced maize volatiles (Turlings et al., Science 250:1251, 1990). Precisely which components are attractive has been difficult to determine, and the wasps respond strongly to unidentified minor components when subjected to gas chromatograph-coupled electroantennography (Gouinguene et al., J Chem Ecol. 31:1023, 2005). To determine whether the ZmPep3-induced blend was attractive to naïve C. marginiventris, olfactometer assays were conducted with leaves pretreated with ZmPep3, Gln-18:3 or water for 16 h. To ensure that any preference was due to elicited plant responses and not to an inherent attraction or repellence to any treatment substance, leaves treated at time of assay were used as controls. […] Thus, ZmPep3-regulated responses are sufficient to generate effective indirect defenses against Lepidopteran herbivores.
# [4] = equivalent molar concentrations
# [5] = low equivalent quantities of elicitor
# [6] = real-time quantification, peptide-treated leaves
substance,measurement,setting,value
ZmPEP3: 23 amino acid maize plant elicitor peptide TRTPPWPPCPPEEGSGGNGGSHN (SEQ ID NO: 3) (Zea mays),BX1 and BX2 expression by qRT-PCR,[1]; 12 h post-treatment,expressed
same,"TPS10 and TPS23 gene expression, ZmPep3 versus Gln-18:3",[1]; [4],more strongly induced
same,expression of genes encoding Terpene Synthases (TPS) 10 and 23,[1]; [4],strongly activate expression
same,SerPIN and WIP1 expression by qRT-PCR,[1]; in vivo,highly expressed
same,expression of AAMT1 and IGL genes,[1]; in vivo,induced
same,"ACC Oxidase and AOC transcript, ZmPep3-treated compared to Gln-18:3-treated leaves",[1]; [5],greater quantities of transcript
same,"accumulation of transcripts for ACC Oxidase, Allene Oxide Synthase and Allene Oxide Cyclase",[1]; [5],significantly increased accumulation of transcripts
same,upregulation of genes encoding proteinase inhibitor proteins,[1]; [6],more than a thousand-fold
same,upregulation of genes encoding terpene synthases,[1]; [6],more than a thousand-fold
same,jasmonic acid accumulation in leaves,[2]; ZmPEP3-treated leaves,found to accumulate
same,"JA and ET increases, ZmPep3 compared to Gln-18:3",[2]; low equivalent quantities,greater magnitude and longer duration
same,JA and ET synthesis,[2]; low equivalent quantities of either elicitor,elicitation of JA and ET synthesis
same,less biomass gain of second instar larvae,S. exigua,40%
same,anthranilate and indole in leaves,[3]; following treatment,increased
same,HDMBOA-Glc accumulation,[3]; in vivo,increased accumulation
same,"anthranilate and indole accumulation, peptide vs Gln-18:3",[3]; in vivo,significantly greater accumulation
same,"accumulation of terpenes in internal pools, ZmPep3 vs Gln-18:3",[3]; measured prior to volatile collection,significantly greater accumulation of terpenes
same,wasps attracted to ZmPep3-pretreated vs water-pretreated leaves,Cotesia marginiventris; 16 h pretreatment,more wasps were attracted
same,wasp preference for leaves pretreated 16 h vs leaves treated at time of assay,Cotesia marginiventris; naive C. marginiventris,strongly preferred
